Results as given in the supplement of paper PMC10307832.

What was measured:
Experiment in all cases: relative viability (nuclei count vs DMSO), 5 days (fraction); higher = more cells survive
Elesclomol + Pictilisib = compound: CN(NC(=O)CC(=O)NN(C)C(=S)c1ccccc1)C(=S)c1ccccc1 [Elesclomol] + CS(=O)(=O)N1CCN(Cc2cc3nc(-c4cccc5[nH]ncc45)nc(N4CCOCC4)c3s2)CC1 [Pictilisib] (partner 1 µM)
Method in brief: (§1)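 One day after seeding in 1536-well plates, lung cancer cell lines were dosed by pin tool. Dosing was either single-drug or a fixed anchor-drug dose plus five library-drug doses (not always all listed) in √10 steps. After 5 days, nuclei were stained in one fix-and-stain step and counted on 4× images, and relative viability is the nuclei count of treated wells over that of vehicle wells, given as the median of duplicate plates.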

Elesclomol + Navitoclax = compound: CN(NC(=O)CC(=O)NN(C)C(=S)c1ccccc1)C(=S)c1ccccc1 [Elesclomol] + CC1(C)CCC(c2ccc(Cl)cc2)=C(CN2CCN(c3ccc(C(=O)NS(=O)(=O)c4ccc(N[C@H](CCN5CCOCC5)CSc5ccccc5)c(S(=O)(=O)C(F)(F)F)c4)cc3)CC2)C1 [Navitoclax] (partner 0.5 µM)
Method in brief: as §1

Elesclomol + Bortezomib = compound: CN(NC(=O)CC(=O)NN(C)C(=S)c1ccccc1)C(=S)c1ccccc1 [Elesclomol] + CC(C)C[C@H](NC(=O)[C@H](Cc1ccccc1)NC(=O)c1cnccn1)B(O)O [Bortezomib] (partner 0.002 µM)
Method in brief: as §1

Elesclomol + OSI-027 = compound: CN(NC(=O)CC(=O)NN(C)C(=S)c1ccccc1)C(=S)c1ccccc1 [Elesclomol] + COc1cccc2cc(-c3nc([C@H]4CC[C@H](C(=O)O)CC4)n4ncnc(N)c34)[nH]c12 [OSI-027] (partner 0.5 µM)
Method in brief: as §1

Elesclomol + Lapatinib = compound: CN(NC(=O)CC(=O)NN(C)C(=S)c1ccccc1)C(=S)c1ccccc1 [Elesclomol] + CS(=O)(=O)CCNCc1ccc(-c2ccc3ncnc(Nc4ccc(OCc5cccc(F)c5)c(Cl)c4)c3c2)o1 [Lapatinib] (partner 2 µM)
Method in brief: as §1

Cell Line	relative viability (Elesclomol + Pictilisib; first compound 0.003162 µM)	relative viability (Elesclomol + Pictilisib; first compound 0.01 µM)	relative viability (Elesclomol + Pictilisib; first compound 0.03162 µM)	relative viability (Elesclomol + Pictilisib; first compound 0.1 µM)	relative viability (Elesclomol + Navitoclax; first compound 0.003162 µM)	relative viability (Elesclomol + Navitoclax; first compound 0.01 µM)	relative viability (Elesclomol + Navitoclax; first compound 0.03162 µM)	relative viability (Elesclomol + Navitoclax; first compound 0.1 µM)	relative viability (Elesclomol + Bortezomib; first compound 0.003162 µM)	relative viability (Elesclomol + Bortezomib; first compound 0.01 µM)	relative viability (Elesclomol + Bortezomib; first compound 0.03162 µM)	relative viability (Elesclomol + Bortezomib; first compound 0.1 µM)	relative viability (Elesclomol + OSI-027; first compound 0.003162 µM)	relative viability (Elesclomol + OSI-027; first compound 0.01 µM)	relative viability (Elesclomol + OSI-027; first compound 0.03162 µM)	relative viability (Elesclomol + OSI-027; first compound 0.1 µM)	relative viability (Elesclomol + Lapatinib; first compound 0.003162 µM)	relative viability (Elesclomol + Lapatinib; first compound 0.01 µM)	relative viability (Elesclomol + Lapatinib; first compound 0.03162 µM)	relative viability (Elesclomol + Lapatinib; first compound 0.1 µM)
NCI-H647	0.492	0.168	0.204	0.0838	1.05	0.665	0.191	0.0372	0.924	0.773	0.589	0.0718	0.603	0.368	0.161	0.203	1.08	0.765	0.267	0.0231
NCI-H2009	0.797	0.225	0.122	0.0966	1.17	0.567	0.277	0.11	0.929	0.229	0.115	0.0727	0.448	0.131	0.126	0.0949	0.841	0.178	0.136	0.107
EPLC-272H	0.349	–	0.341	0.11	1.1	–	1.03	0.164	0.918	–	1.03	0.481	0.295	–	0.304	0.138	0.873	–	1.04	0.119
NCI-H520	0.255	0.279	0.22	0.132	1.08	0.939	0.587	0.162	0.481	0.248	0.2	0.0916	0.23	0.293	0.224	0.14	0.91	0.666	0.373	0.0913
NCI-H2405	0.472	0.249	0.228	0.236	0.619	0.178	0.137	0.132	0.959	0.842	0.515	0.458	0.651	0.473	0.339	0.272	1.16	0.292	0.291	0.289
NCI-H2085	0.419	0.444	0.433	0.322	1.22	0.725	0.657	0.312	0.938	0.662	0.577	0.349	0.919	0.727	0.476	0.268	0.761	0.521	0.397	0.376
NCI-H322M	0.478	–	0.519	0.382	1.27	–	1.06	0.858	1.17	–	1.25	1.15	0.565	0.328	0.268	0.116	0.563	–	0.624	0.399
NCI-H1944	0.381	0.29	0.318	0.328	1.14	1.11	1.01	0.904	–	–	–	–	0.454	0.306	0.389	0.299	0.829	0.714	0.846	0.688
LC-2-ad	0.419	0.195	0.102	0.0937	0.521	0.213	0.062	0.099	0.978	0.337	0.11	0.0678	0.52	0.231	0.273	0.276	0.876	0.334	0.111	0.0969
NCI-H358	0.24	0.196	0.191	0.163	–	–	–	–	–	–	–	–	0.276	0.116	0.0873	0.087	0.272	0.244	0.209	0.184
NCI-H2170	0.328	0.266	0.298	0.193	0.628	0.475	0.493	0.245	–	–	–	–	0.793	0.577	0.739	0.583	0.273	0.285	0.259	0.257
A-427	0.678	0.345	0.648	0.45	0.904	0.827	1	0.499	0.956	0.908	0.99	0.483	0.45	0.2	0.3	0.149	0.933	1.02	1.05	0.52
NCI-H1666	0.359	0.267	0.243	0.195	0.825	0.299	0.227	0.15	0.826	0.334	0.278	0.172	0.807	0.654	0.464	0.465	0.556	0.326	0.229	0.153
LOU-NH91	0.447	0.511	0.45	0.424	0.672	0.465	0.307	0.282	0.537	0.525	0.423	0.463	0.786	0.701	0.595	0.714	0.733	0.669	0.574	0.478
ABC-1	0.26	0.286	0.217	0.223	–	–	–	–	0.133	0.23	0.25	0.228	0.227	0.19	0.225	0.196	0.935	0.477	0.466	0.42
NCI-H1651	0.454	0.323	0.177	0.0888	0.971	0.525	0.137	0.0728	0.859	0.931	0.872	0.655	0.523	0.527	0.259	0.102	0.715	0.415	0.112	0.0857
201T	0.672	0.652	0.665	0.674	1.16	1.16	1.23	1.16	1.09	1.07	1.08	1.05	0.683	0.587	0.386	0.369	1.04	1.08	1.07	0.985
NCI-H3122	0.567	0.594	0.594	0.304	1.05	1.03	1.01	0.247	1.05	0.994	0.957	0.409	0.955	0.198	0.144	0.0943	0.999	0.989	0.978	0.434

Cell Line	relative viability (Elesclomol + Pictilisib; first compound 0.003162 µM)	relative viability (Elesclomol + Pictilisib; first compound 0.01 µM)	relative viability (Elesclomol + Pictilisib; first compound 0.03162 µM)	relative viability (Elesclomol + Pictilisib; first compound 0.1 µM)	relative viability (Elesclomol + Navitoclax; first compound 0.003162 µM)	relative viability (Elesclomol + Navitoclax; first compound 0.01 µM)	relative viability (Elesclomol + Navitoclax; first compound 0.03162 µM)	relative viability (Elesclomol + Navitoclax; first compound 0.1 µM)	relative viability (Elesclomol + Bortezomib; first compound 0.003162 µM)	relative viability (Elesclomol + Bortezomib; first compound 0.01 µM)	relative viability (Elesclomol + Bortezomib; first compound 0.03162 µM)	relative viability (Elesclomol + Bortezomib; first compound 0.1 µM)	relative viability (Elesclomol + OSI-027; first compound 0.003162 µM)	relative viability (Elesclomol + OSI-027; first compound 0.01 µM)	relative viability (Elesclomol + OSI-027; first compound 0.03162 µM)	relative viability (Elesclomol + OSI-027; first compound 0.1 µM)	relative viability (Elesclomol + Lapatinib; first compound 0.003162 µM)	relative viability (Elesclomol + Lapatinib; first compound 0.01 µM)	relative viability (Elesclomol + Lapatinib; first compound 0.03162 µM)	relative viability (Elesclomol + Lapatinib; first compound 0.1 µM)
A549	0.493	0.246	0.1	0.0728	0.798	0.181	0.0437	0.03	–	–	–	–	–	–	–	–	0.74	0.174	0.29	0.058
NCI-H727	0.331	0.226	0.158	0.0437	0.368	0.213	0.109	0.0643	0.679	0.405	0.185	0.0498	0.641	0.426	0.394	0.251	0.591	0.365	0.165	0.0475
NCI-H441	0.424	0.364	0.183	0.0824	0.712	0.469	0.253	0.103	0.55	0.454	0.25	0.0495	0.563	0.37	0.327	0.103	–	–	–	–
HOP-62	0.694	0.269	0.582	0.239	0.904	0.553	0.647	0.302	0.884	0.708	0.83	0.146	0.823	0.717	0.701	0.316	1.17	0.872	0.811	0.251
RERF-LC-KJ	0.408	0.19	0.243	0.234	0.47	0.288	0.293	0.191	0.943	0.536	0.322	0.276	0.406	0.372	0.242	0.188	0.909	0.756	0.398	0.299
HCC-44	0.592	0.578	0.554	0.322	0.941	0.993	0.987	0.538	0.906	0.794	0.876	0.628	0.636	0.198	0.351	0.11	0.95	0.941	1.03	0.727
LCLC-103H	0.628	0.471	0.736	0.457	–	–	–	–	1.12	0.865	1.07	0.838	0.461	0.409	0.463	0.237	–	–	–	–
ChaGo-K-1	0.481	0.239	0.194	0.242	0.739	0.374	0.258	0.221	0.794	0.402	0.273	0.275	0.591	0.462	0.221	0.136	–	–	–	–
NCI-H1703	0.198	0.106	0.133	0.128	0.141	0.0995	0.116	0.107	0.136	0.0882	0.104	0.12	–	–	–	–	0.262	0.216	0.157	0.129
LK-2	0.418	0.177	0.149	0.117	0.671	0.247	0.142	0.115	–	–	–	–	0.232	0.224	0.179	0.116	0.698	0.22	0.17	0.0799
NCI-H650	0.875	0.361	0.276	0.256	–	–	–	–	1.02	0.309	0.199	0.198	0.555	0.382	0.229	0.254	0.805	0.373	0.195	0.289
NCI-H661	0.356	0.373	0.214	0.212	–	–	–	–	0.635	0.288	0.209	0.182	0.617	0.283	0.242	0.168	0.368	0.205	0.236	0.186
NCI-H1793	0.273	0.307	0.335	0.178	0.349	0.349	0.382	0.135	–	–	–	–	0.276	0.197	0.262	0.228	0.657	0.613	0.651	0.112
NCI-H1395	0.65	0.324	0.292	0.436	1.09	0.475	0.286	0.469	–	–	–	–	0.706	0.435	0.398	0.227	1.01	0.368	0.289	0.304
SK-MES-1	0.402	0.312	0.238	0.199	1.28	0.97	1.03	0.385	–	–	–	–	0.695	0.196	0.266	0.395	0.563	0.446	0.429	0.325
NCI-H1563	0.656	0.582	0.587	0.486	–	–	–	–	0.732	0.62	0.457	0.492	0.647	0.606	0.52	0.459	0.625	0.562	0.601	0.458
IA-LM	0.275	0.126	0.052	0.0237	0.415	0.133	0.0436	0.0194	0.534	0.137	0.0664	0.0121	–	–	–	–	0.658	0.201	0.121	0.0621
